Laboratory results reported in patent US6875760B2 (Novo Nordisk A/S, priority 1999, dated 2005).
pIC50: −log10 of the molar value.

Biological target: T1, human glucagon receptor (Homo sapiens, UniProt P47871)
T1 construct: expressed in transfected cells; host or cells: BHK (baby hamster kidney) cells
Experiment: Glucagon Binding Assay (III)
Settings: BHK cell membranes, WGA SPA beads, 125I-glucagon; read-out: Glu Bd Assay (III) IC50
Description: BHK (baby hamster kidney cell line) cells were transfected with the human glucagon receptor and a membrane preparation of the cells was prepared.
All steps in the membrane preparation were kept on ice or performed at 4° C. BHK cells were harvested and centrifuged. […] The pellet was resuspended in homogenisation buffer, homogenised 2×10 sec (Polytron) and additional homogenisation buffer was added. […] (Polytron).
The glucagon binding assay was carried out in opti plates (Polystyrene Microplates, Packard). […] Finally 50 μL WGA beads containing 1 mg beads were transferred to the well. The assay was incubated for 4 hours on a shaker and then settled for 8-48 hours. The opti plates were counted in a Topcounter. Non-specific binding was determined with 500 nM of glucagon.

T1 sequence (P47871 26-477): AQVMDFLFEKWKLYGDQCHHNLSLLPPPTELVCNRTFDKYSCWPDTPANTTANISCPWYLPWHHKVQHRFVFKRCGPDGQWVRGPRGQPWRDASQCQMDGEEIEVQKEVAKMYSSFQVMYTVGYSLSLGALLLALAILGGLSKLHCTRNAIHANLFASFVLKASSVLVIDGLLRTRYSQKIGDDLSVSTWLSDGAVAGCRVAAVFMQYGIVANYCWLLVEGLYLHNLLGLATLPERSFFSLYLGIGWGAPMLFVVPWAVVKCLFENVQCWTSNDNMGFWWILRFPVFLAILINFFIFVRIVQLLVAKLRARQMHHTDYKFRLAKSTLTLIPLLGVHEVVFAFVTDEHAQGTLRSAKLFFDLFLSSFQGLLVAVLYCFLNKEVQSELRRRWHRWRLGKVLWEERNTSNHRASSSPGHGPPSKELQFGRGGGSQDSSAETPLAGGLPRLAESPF

Row | SMILES | pIC50
1 | CC1CCC(N(Cc2ccc(C(=O)NCCC(=O)O)cc2)C(=O)Nc2ccc(OC(F)(F)F)cc2)CC1 (stereo not drawn) [Example 15, 3-{4-[1-(4-Methylcyclohexyl)-3-(4-trifluoromethoxyphenyl)ureidomethyl]benzoylamino}propionic acid] | 6.08
2 | CC(C)(C)C1CCC(N(Cc2ccc(C(=O)NCCC(=O)O)cc2)C(=O)Nc2ccc(Cl)c(Cl)c2)CC1 (stereo not drawn) [Example 16, 3-{4-[1-(4-tert-Butylcyclohexyl)-3-(3,4-dichlorophenyl)ureidomethyl]benzoylamino}propionic acid] | 7.41
3 | CCCCC(CC)CN(Cc1ccc(C(=O)NCCC(=O)O)cc1)C(=O)Nc1cccc(C#N)c1 (stereo not drawn) [Example 20, 3-{4-[3-(3-Cyanophenyl)-1-(2-ethylhexyl)ureidomethyl]benzoylamino}propionic acid] | 5.63
4 | CCCCC(CC)CN(Cc1ccc(C(=O)NCCC(=O)O)cc1)C(=O)Nc1cccc(C(F)(F)F)c1 (stereo not drawn) [Example 21, 3-{4-[1-(2-Ethylhexyl)-3-(3-trifluoromethylphenyl)ureidomethyl]benzoylamino}propionic acid] | 5.82
5 | CC1CCC(N(Cc2ccc(C(=O)NCCC(=O)O)cc2)C(=O)Nc2ccc(Oc3ccccc3)cc2)CC1 (stereo not drawn) [Example 22, 3-{4-[1-(4-Methylcyclohexyl)-3-(4-phenoxyphenyl)ureidomethyl]benzoylamino}propionic acid] | 5.96
6 | CC(C)(C)C1CCC(N(Cc2ccc(C(=O)NCCC(=O)O)cc2)C(=O)NCCc2cccs2)CC1 (stereo not drawn) [Example 23, 3-{4-[1-(4-tert-Butylcyclohexyl)-3-(2-thiophen-2-ylethyl)ureidomethyl]benzoylamino}propionic acid] | 5.74
7 | COc1cc(OC)c(NC(=O)N(Cc2ccc(C(=O)NCCC(=O)O)cc2)C2CCC(C(C)(C)C)CC2)cc1Cl (stereo not drawn) [Example 24, 3-{4-[1-(4-tert-Butylcyclohexyl)-3-(5-chloro-2,4-dimethoxyphenyl)ureidomethyl]benzoylamino}propionic acid] | 5.77
8 | CC(C)(C)C1CCC(N(Cc2ccc(C(=O)NCCC(=O)O)cc2)C(=O)Nc2ccccc2C(F)(F)F)CC1 (stereo not drawn) [Example 25, 3-{4-[1-(4-tert-Butylcyclohexyl)-3-(2-trifluoromethylphenyl)ureidomethyl]benzoylamino}propionic acid] | 6.03
9 | CSc1cccc(NC(=O)N(Cc2ccc(C(=O)NCCC(=O)O)cc2)C2CCC(C(C)(C)C)CC2)c1 (stereo not drawn) [Example 26, 3-{4-[1-(4-tert-Butylcyclohexyl)-3-(3-methylsulfanylphenyl)ureidomethyl]benzoylamino}propionic acid] | 6.41
10 | CC(C)(C)C1CCC(N(Cc2ccc(C(=O)NCCC(=O)O)cc2)C(=O)NCCc2ccccc2)CC1 (stereo not drawn) [Example 27, 3-{4-[1-(4-tert-Butylcyclohexyl)-3-phenethylureidomethyl]benzoylamino}propionic acid] | 5.70
11 | CC(C)c1ccc(NC(=O)N(Cc2ccc(C(=O)NCCC(=O)O)cc2)C2CCC(C(C)(C)C)CC2)cc1 (stereo not drawn) [Example 29, 3-{4-[1-(4-tert-Butylcyclohexyl)-3-(4-isopropylphenyl)ureidomethyl]benzoyl}aminopropionic acid] | 6.83
12 | COc1ccc(NC(=O)N(Cc2ccc(C(=O)NCCC(=O)O)cc2)C2CCC(C(C)(C)C)CC2)cc1 (stereo not drawn) [Example 31, 3-{4-[1-(4-tert-Butylcyclohexyl)-3-(4-methoxyphenyl)ureidomethyl]benzoyl}aminopropionic acid] | 5.66
13 | CC(=O)c1ccc(NC(=O)N(Cc2ccc(C(=O)NCCC(=O)O)cc2)C2CCC(C(C)(C)C)CC2)cc1 (stereo not drawn) [Example 32, 3-{4-[1-(4-tert-Butylcyclohexyl)-3-(4-acetylphenyl)ureidomethyl]benzoyl}aminopropionic acid] | 5.77
14 | CC(C)(C)C1CCC(N(Cc2ccc(C(=O)NCCC(=O)O)cc2)C(=O)Nc2ccc(Cl)cc2)CC1 (stereo not drawn) [Example 34, 3-{4-[1-(4-tert-Butylcyclohexyl)-3-(4-chlorophenyl)ureidomethyl]benzoyl}aminopropionic acid] | 6.34
15 | CC(C)(C)[C@H]1CC[C@H](N(Cc2ccc(C(=O)NCCC(=O)O)cc2)C(=O)Nc2ccc(Cl)cc2Cl)CC1 [Example 35, 3-{4-[1-(4-trans-tert-Butylcyclohexyl)-3-(2,4-dichlorophenyl)ureidomethyl]benzoylamino}propionic acid] | 6.45
16 | CCCCC(CC)CN(Cc1ccc(C(=O)NCCC(=O)O)cc1)C(=O)Nc1ccc(Cl)cc1 (stereo not drawn) [Example 38, 3-{4-[3-(4-Chlorophenyl)-1-(2-ethylhexyl)ureidomethyl]benzoylamino}propionic acid] | 6.03
17 | CCCCC(CC)CN(Cc1ccc(C(=O)NCCC(=O)O)cc1)C(=O)Nc1cccc(C(=O)OCC)c1 (stereo not drawn) [Example 40, 3-[3-[4-(2-Carboxyethylcarbamoyl)benzyl]-3-(2-ethylhexyl)ureido]benzoic acid ethyl ester] | 6.09
18 | CCCCC(CC)CN(Cc1ccc(C(=O)NCCC(=O)O)cc1)C(=O)Nc1ccc(SC)cc1 (stereo not drawn) [Example 41, 3-{4-[1-(2-Ethylhexyl)-3-(4-methylsulfanylphenyl)ureidomethyl]benzoylamino}propionic acid] | 6.52
19 | CCCCC(CC)CN(Cc1ccc(C(=O)NCCC(=O)O)cc1)C(=O)Nc1ccc(C(C)C)cc1 (stereo not drawn) [Example 43, 3-{4-[1-(2-Ethylhexyl)-3-(4-isopropylphenyl)ureidomethyl]benzoylamino}propionic acid] | 5.96

Now from value to compound:

Row | pIC50 | SMILES
20 | 7.66 | CC(NC(=O)N(Cc1ccc(C(=O)Nc2nn[nH]n2)cc1)c1ccc(C2CCCCC2)cc1)c1ccc(Cl)cc1 (single isomer, unassigned) [Example 337, 4-[3-[1-(4-Chlorophenyl)ethyl]-1-(4-Cyclohexylphenyl)ureidomethyl]-N-(2H-tetrazol-5-yl)benzamide]
21 | 6.77 | CC(NC(=O)N(Cc1ccc(C(=O)Nc2nn[nH]n2)cc1)c1ccc(C2CCCCC2)cc1)c1ccc(Cl)cc1 (single isomer, unassigned) [Example 338, 4-[3-[1-(4-Chlorophenyl)ethyl]-1-(4-cyclohexylphenyl)ureidomethyl]-N-(2H-tetrazol-5-yl)benzamide]
22 | 6.74 | CCCCC(CC)CN(Cc1ccc(C(=O)NCCC(=O)O)cc1)C(=O)Nc1ccc(Oc2ccccc2)cc1 (stereo not drawn) [Example 14, 3-{4-[1-(2-Ethylhexyl)-3-(4-phenoxyphenyl)ureidomethyl]benzoylamino}propionic acid]
23 | 7.57 | CC(C)(C)C1CCC(N(Cc2ccc(C(=O)NCCC(=O)O)cc2)C(=O)Nc2ccc(Oc3ccccc3)cc2)CC1 (stereo not drawn) [Example 17, 3-{4-[1-(4-tert-Butylcyclohexyl)-3-(4-phenoxyphenyl)ureidomethyl]benzoylamino}propionic acid]
24 | 6.90 | O=C(O)CCNC(=O)c1ccc(CN(CCC(c2ccccc2)c2ccccc2)C(=O)Nc2ccc(OC(F)(F)F)cc2)cc1 [Example 18, 3-{4-[1-(3,3-Diphenylpropyl)-3-(4-trifluoromethoxyphenyl)ureidomethyl]benzoylamino}propionic acid]
25 | 6.70 | O=C(O)CCNC(=O)c1ccc(CN(CCc2ccc(Cl)c(Cl)c2)C(=O)Nc2ccc(OC(F)(F)F)cc2)cc1 [Example 19, 3-{4-[1-[2-(3,4-Dichlorophenyl)ethyl]-3-(4-trifluoromethoxyphenyl)ureidomethyl]benzoylamino}propionic acid]
26 | 6.58 | CC(C)(C)C1CCC(N(Cc2ccc(C(=O)NCCC(=O)O)cc2)C(=O)Nc2ccccc2-c2ccccc2)CC1 (stereo not drawn) [Example 28, 3-{4-[3-Biphenyl-2-yl-1-(4-tert-butylcyclohexyl)ureidomethyl]benzoylamino}propionic acid]
27 | 6.86 | CSc1ccc(NC(=O)N(Cc2ccc(C(=O)NCCC(=O)O)cc2)C2CCC(C(C)(C)C)CC2)cc1 (stereo not drawn) [Example 30, 3-{4-[1-(4-tert-Butylcyclohexyl)-3-(4-methylsulfanylphenyl)ureidomethyl]benzoyl}aminopropionic acid]
28 | 6.98 | CCCCOC(=O)c1ccc(NC(=O)N(Cc2ccc(C(=O)NCCC(=O)O)cc2)C2CCC(C(C)(C)C)CC2)cc1 (stereo not drawn) [Example 33, 4-{3-(4-tert-Butylcyclohexyl)-3-[4-(2-carboxyethylcarbamoyl)benzyl]ureido}benzoic acid butyl ester]
29 | 6.82 | CCCCC(CC)CN(Cc1ccc(C(=O)NCCC(=O)O)cc1)C(=O)Nc1ccc(C(F)(F)F)cc1 (stereo not drawn) [Example 36, 3-{4-[1-(2-Ethylhexyl)-3-(4-trifluoromethylphenyl)ureidomethyl]benzoylamino}propionic acid]
30 | 6.84 | CCCCOC(=O)c1ccc(NC(=O)N(Cc2ccc(C(=O)NCCC(=O)O)cc2)CC(CC)CCCC)cc1 (stereo not drawn) [Example 37, 4-[3-[4-(2-Carboxyethylcarbamoyl)benzyl]-3-(2-ethylhexyl)ureido]benzoic acid butyl ester]
31 | 6.64 | CCCCC(CC)CN(Cc1ccc(C(=O)NCCC(=O)O)cc1)C(=O)Nc1ccc(C)cc1 (stereo not drawn) [Example 39, 3-{4-[1-(2-Ethylhexyl)-3-p-tolylureidomethyl]benzoylamino}propionic acid]
32 | 6.93 | CCCCC(CC)CN(Cc1ccc(C(=O)NCCC(=O)O)cc1)C(=O)Nc1ccc(CC)cc1 (stereo not drawn) [Example 42, 3-{4-[1-(2-Ethylhexyl)-3-(4-ethylphenyl)ureidomethyl]benzoylamino}propionic acid]

Same assay, conditions: Glu Bd Assay (III) IC50 (nM), BHK cell membranes, WGA SPA beads, 125I-glucagon

Row | SMILES | IC50 [nM]
33 | CC(C)(C)[C@H]1CC[C@H](N(Cc2ccc(C(=O)N3CCCC(C(=O)O)C3)cc2)C(=O)Nc2ccc(OC(F)(F)F)cc2)CC1 (relative stereo) [Example 94, 1-{4-[1-(trans-4-tert-Butylcyclohexyl)-3-(4-trifluoromethoxyphenyl)ureidomethyl]benzoyl}piperidine-3-carboxylic acid] | 1000
